Experimental data reported in PubChem BioAssay (NCI).
“And” between values parts separate entries of the source, which are not always exact repeats. Equal entries are not always repeated.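 Grown in 96-well plates, cells were treated for 48 hours with each compound at five concentrations. Insufficient inhibition: endpoint recorded as highest concentration tested. GI50: concentration for 50% inhibition of growth. TGI: concentration producing complete growth inhibition.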

What was measured:
Assay in all cases: NCI-60 cell line screen, 48 h
[1] = tested on: CCRF-CEM leukemia
[2] = tested on: DMS 273 small cell lung
[3] = tested on: KM12 colon
[4] = tested on: MALME-3M melanoma
[5] = tested on: NCI-H522 lung
[6] = tested on: OVCAR-3 ovarian
[7] = tested on: SF-268 CNS
[8] = tested on: SK-MEL-28 melanoma
[9] = tested on: HOP-18 NSCLC
[10] = tested on: T-47D breast

Structure (SMILES)	TGI [1]	TGI [2]	TGI [3]	TGI [4]	TGI [5]	TGI [6]	TGI [7]	TGI [8]	TGI [9]	GI50 [1]	GI50 [3]	GI50 [4]	GI50 [5]	GI50 [6]	TGI [10]	GI50 [7]	GI50 [8]	GI50 [10]
CCOc1ccc(-c2oc(/C=N/NS(=O)(=O)c3ccc(C)cc3)c([N+](=O)[O-])c2-c2ccc(OCC)cc2)cc1	8040 nM	23000 nM	25300 nM	37100 nM	20600 nM	43300 nM	50500 nM	28300 nM										
C[N+](C)=c1nc(N2CCOCC2)ss1	> 100000 nM	> 100000 nM	> 100000 nM		> 100000 nM		> 100000 nM	> 100000 nM										
CC1(C)OC(COCCOCCCCCO)C(COCCOCCCCCO)O1 (configuration not stated)		> 100000 nM	> 100000 nM	> 100000 nM	> 100000 nM	> 100000 nM	> 100000 nM	> 100000 nM	> 100000 nM									
O=[N+]([O-])C1C2C=CC(C2)[C@H]1c1ccc(Cl)cc1Cl (some centres not stated)	> 100000 nM	> 100000 nM	> 100000 nM	> 100000 nM			> 100000 nM	> 100000 nM										
Cc1ccc(/C=C2\CNC/C(=C\c3ccc(C)cc3)C2=O)cc1	7820 nM and 8710 nM	2490 nM	1550 nM and 3320 nM	6370 nM and 38500 nM	3040 nM and 4630 nM		10300 nM	4050 nM and 4830 nM		2740 nM	399 nM	2400 nM	1640 nM	1270 nM	> 24800 nM			
Cc1ccccc1NC(=O)C(=O)CC(=O)c1ccc([N+](=O)[O-])cc1		> 100000 nM	> 100000 nM	> 100000 nM		> 100000 nM	> 100000 nM	> 100000 nM	> 100000 nM									
CC(C)(C)[Si](C)(C)OCC1OC(n2cnc3c(N)ncnc32)C(O)C1O (configuration not stated)	> 100000 nM		> 100000 nM	> 100000 nM	> 100000 nM	> 100000 nM	> 100000 nM	> 100000 nM							> 100000 nM			
CC[C@H](C)[C@H](NC(=O)[C@H]1CCCCN1C)C(=O)N(C)[C@H](C[C@@H](OC(C)=O)c1nc(C(=O)N[C@@H](Cc2ccccc2)C[C@H](C)C(=O)OC)cs1)C(C)C	2500 nM		> 25000 nM	> 25000 nM	13.5 nM and < 2.5 nM	11.6 nM	> 25000 nM	> 25000 nM		0.552 nM and 2.5 nM		442 nM	0.28 nM and < 2.5 nM	0.0424 nM	> 25000 nM	0.466 nM and 2.5 nM	> 25000 nM	11800 nM
COc1ccc(-c2cc(/C=C/C(=O)c3cc(OC)c(OC)c(OC)c3)[nH]n2)cc1OC	3130 nM		2270 nM	6190 nM	2680 nM	3150 nM	3900 nM	4410 nM		342 nM	780 nM	2320 nM	1330 nM	1590 nM	3760 nM	1680 nM	1920 nM	1010 nM
COc1ccc(-c2nc3c(c(=O)n2C(C)=O)C(c2ccc(Cl)cc2)c2sc4c(Cl)cccc4c2O3)cc1 (configuration not stated)	6280 nM		1910 nM	2620 nM	1480 nM	1850 nM	3820 nM	3390 nM		462 nM	349 nM	409 nM	259 nM	383 nM	2200 nM	680 nM	1150 nM	326 nM
O=C(Nc1ccccc1O)c1ccc(CNC(=O)c2ccsc2Nc2ccnc(C(F)(F)F)c2)cc1	> 100000 nM		11900 nM	6650 nM	6860 nM	4800 nM	15100 nM	6790 nM		320 nM	2840 nM	1700 nM	1770 nM	1850 nM	> 100000 nM	2690 nM	2150 nM	2710 nM
NC(=O)c1cc(I)ccc1NC(=O)COc1ccccc1	> 100000 nM		> 100000 nM	> 100000 nM	12900 nM	1350 nM	26100 nM	> 100000 nM		463 nM	328 nM	7280 nM	508 nM	336 nM	> 100000 nM	1140 nM	2570 nM	556 nM
O=c1oc2ccc(F)cc2c(=O)n1-c1ccc(Br)cc1F	> 100000 nM		6160 nM	2030 nM	9380 nM	12900 nM	13700 nM	2480 nM		2720 nM	2230 nM	317 nM	363 nM	436 nM	7610 nM	633 nM	373 nM	651 nM
CCOC1=C2NC(Cc3ccc(F)cc3)=NC2C(=O)c2ccccc21 (configuration not stated)	61800 nM	81300 nM	> 100000 nM	55800 nM	46100 nM	> 100000 nM		67800 nM										
Nc1ncnc2c1c(-c1ccc(Oc3ccccc3)cc1)nn2C[C@@H]1SSC[C@@H]1O	> 59700 nM		12100 nM	2240 nM	6980 nM	1040 nM	530 nM	484 nM		61 nM	180 nM	445 nM	2150 nM	277 nM	2270 nM	37.5 nM	82.4 nM	305 nM
CN(C)C/C=C/C(=O)Nc1ccc(C(=O)N2CCC[C@@H](Nc3ncc(Cl)c(-c4c[nH]c5ccccc45)n3)C2)cc1	15800 nM		12100 nM	315 nM	228 nM	990 nM	1780 nM	942 nM		43.8 nM	371 nM	37.2 nM	34.4 nM	64.4 nM	4270 nM	125 nM	121 nM	42.7 nM
O=C(O)C1C(C(=O)O)C2(Cl)C(Cl)=C(Cl)C1(Cl)C2(Cl)Cl.[Cd] (configuration not stated)	61400 nM		37500 nM	7050 nM	1780 nM	19700 nM	36800 nM	54700 nM		16500 nM	16900 nM	2330 nM	412 nM	7810 nM	28100 nM	18100 nM	24100 nM	11400 nM
CC1(C)C2CCC13C(=O)C1OC3(C2)C2C(=O)c3c(O)cccc3C(=O)C12 (configuration not stated)	1140 nM		14900 nM	1020 nM	10100 nM	648 nM	15300 nM	21100 nM		212 nM	2600 nM	290 nM	3200 nM	180 nM	6580 nM	3060 nM	3580 nM	906 nM
